Like-named read-outs stand apart in the source and are kept apart here.
Key:
[1] = organic solvents; cited from earlier work
[2] = Static fluorescence spectra and fluorescence quantum yield; assay type: physicochemical; settings: for λQy em: Qy(0,0) emission band, in toluene at room temperature; for Φf fluorescence quantum yield: toluene, room temperature, argon-purged, error ± 7%
Description: (§1) Static absorption and fluorescence measurements were performed as described previously.^69,70 Argon-purged solutions of the samples in toluene with an absorbance of ≦0.10 at the excitation wavelength were used for the fluorescence spectral, quantum yield, and lifetime measurements. Fluorescence lifetimes were obtained using a phase modulation technique and Soret-band excitation^70 or via decay measurements using Soret-region excitation pulses obtained from a nitrogen-pumped dye laser and time-correlated-single-photon-counting detection. Emission measurements employed 2-4 nm excitation- and detection-monochromator bandwidths and 0.2 nm data intervals. Emission spectra were corrected for detection-system spectral response.

[3] = Static absorption spectra (Qy(0,0) band); assay type: physicochemical; settings: for λQy abs: Qy(0,0) absorption band, in toluene at room temperature; for λQy/IB: ratio of the peak intensities of the Qy(0,0) and B bands, toluene, room temperature
Description: as §1

[4] = Singlet excited-state lifetime by fluorescence techniques; assay type: physicochemical; settings: toluene, room temperature; error ± 7%
Description: as §1

[5] = cited from earlier work
[6] = cited from earlier work; remark: listed apart in the source

| λQy em [2] [nm] | Φf fluorescence quantum yield [2] | λQy abs [3] [nm] | λQy/IB [3] | τs lifetime of the lowest singlet excited state [4] [ns] | SMILES | also measured |
| --- | --- | --- | --- | --- | --- | --- |
| 768 | 0.10 | 758 | 0.69 | 2.7 | CC[C@H]1c2cc3[nH]c4c(c3C)C(=O)[C@H](C(=O)OC)c4c3nc(cc4[nH]c(cc(n2)[C@@H]1C)c(C(C)=O)c4C)[C@@H](C)[C@@H]3CCC(=O)OC/C=C(\C)CCC[C@H](C)CCC[C@H](C)CCCC(C)C [BPh-a, Bacteriopheophytin a] | average singlet excited-state lifetime [1]: 2.0-2.7 ns; Qy(0,0) absorption ([5]; hydrocarbon / organic solvents): 750-760 nm |
| 771 | 0.11 | 768 | 1.2 | 2.9 | CC(=O)c1cc2cc3nc(cc4[nH]c(cc5nc(cc1[nH]2)CC5(C)C)cc4C(C)=O)CC3(C)C [HBC-A] | – |
| 823 | 0.036 | 818 | 1.3 | 1.9 | CCOC(=O)c1c(CC)c2cc3nc(c4c5[nH]c(cc6nc(cc1[nH]2)CC6(C)C)c(CC)c5C(=O)N(Cc1ccccc1)C4=O)CC3(C)C [HBC-I, 15^2-N-Benzyl-3-ethoxycarbonyl-2,12-diethyl-8,8,18,18-tetramethylbacteriochlorin-13,15-dicarboximide] | Stokes shift (fluorescence Qy(0,0) to longer wavelength than absorption Qy(0,0)) ([2]; in toluene): ~5 nm |
| – | – | 766 | – | – | CC(=O)c1c(C)c2cc3nc(cc4[nH]c(cc5nc(cc1[nH]2)CC5(C)C)c(C)c4C(C)=O)CC3(C)C [HBC-MeA, 3,13-Diacetyl-2,8,8,12,18,18-hexamethylbacteriochlorin] | – |
| 716 | 0.17 | 713 | 0.85 | 4.0 | CC1(C)Cc2cc3ccc(cc4nc(cc5ccc(cc1n2)[nH]5)CC4(C)C)[nH]3 [HBC] | – |
| 747 | 0.14 | 740 | 0.96 | 3.8 | COc1c2nc(cc3cc(C(C)=O)c(cc4nc(cc5cc(C(C)=O)c1[nH]5)C(C)(C)C4)[nH]3)C(C)(C)C2 [MeOBC-A, 3,13-Diacetyl-5-methoxy-8,8,18,18-tetramethylbacteriochlorin] | – |
| 749 | 0.17 | 739 | 1.1 | 4.3 | CCOC(=O)c1c(CC)c2cc3nc(c(OC)c4[nH]c(cc5nc(cc1[nH]2)CC5)c(CC)c4C(=O)OCC)CC3 [MeOBC-EtEs, 2,12-diethyl-3,13-diethoxycarbonyl-5-methoxybacteriochlorin] | Stokes shift (fluorescence Qy(0,0) to longer wavelength than absorption Qy(0,0)) ([2]; in toluene): ~15 nm |
| 798 | 0.052 | 793 | 1.0 | 2.2 | CCOC(=O)c1c(CC)c2cc3nc(c4c5[nH]c(cc6nc(c(OC)c1[nH]2)CC6(C)C)c(CC)c5C(=O)N(Cc1ccccc1)C4=O)CC3(C)C [MeOBC-I, 15^2-N-Benzyl-3-ethoxycarbonyl-2,12-diethyl-5-methoxy-8,8,18,18-tetramethyl-bacteriochlorin-13,15-dicarboximide] | Stokes shift (fluorescence Qy(0,0) to longer wavelength than absorption Qy(0,0)) ([2]; in toluene): ~5 nm |
| 749 | 0.13 | 743 | 0.95 | 3.4 | COc1c2nc(cc3[nH]c(cc4nc(cc5[nH]c1c(C(C)=O)c5C)C(C)(C)C4)c(C(C)=O)c3C)C(C)(C)C2 [MeOBC-MeA, 3,13-Diacetyl-5-methoxy-2,8,8,12,18,18-hexamethylbacteriochlorin] | – |
| 711 | 0.25 | 709 | 0.87 | 5.0 | COc1c2nc(cc3ccc(cc4nc(cc5ccc1[nH]5)C(C)(C)C4)[nH]3)C(C)(C)C2 [MeOBC] | – |
| 739 | 0.19 | 733 | 0.93 | 4.6 | COc1c2nc(cc3[nH]c4c(c5nc(cc6[nH]c1c(C(C)=O)c6C)C(C)(C)C5)CC(=O)c4c3C)C(C)(C)C2 [MeOBOP, 3-Acetyl-5-methoxy-2,8,8,12,18,18-hexamethylbacterio-13^1-oxophorbine] | Stokes shift (fluorescence Qy(0,0) to longer wavelength than absorption Qy(0,0)) ([2]; in toluene): ~5 nm |
| – | – | – | – | – | C=Cc1c(C)c2cc3nc(c4c5[n-]c(cc6nc(cc1[n-]2)C(C)=C6CC)c(C)c5C(=O)[C@@H]4C(=O)OC)[C@@H](CCC(=O)OC/C=C(\C)CCC[C@H](C)CCC[C@H](C)CCCC(C)C)[C@@H]3C.[Mg+2] [chlorophyll a] | Φf of quantum yield standard ([2]; in toluene): same value as in benzene; Φf of quantum yield standard ([6]; in benzene): 0.325 |
| – | – | – | – | – | C1=Cc2nc1c(-c1ccccc1)c1ccc([nH]1)c(-c1ccccc1)c1nc(c(-c3ccccc3)c3ccc([nH]3)c2-c2ccccc2)C=C1 [free base tetraphenylporphyrin] | Φf of quantum yield standard ([6]; free base): 0.090 |
| – | – | – | – | – | CC[C@H]1c2cc3[nH]c4c(c5nc(cc6[nH]c(cc(n2)[C@@H]1C)c(C(C)=O)c6C)[C@@H](C)[C@@H]5CCC(=O)OC)CC(=O)c4c3C [methyl bacteriopyropheophorbide a] | Qy(0,0) absorption ([5]; in CH2Cl2): 754 nm |
| – | – | – | – | – | CC(=O)O[C@@H]1C[C@@H](O)[C@@H](C)OC1[C@]1(C)C(=O)c2cc3cc(C)c(cc4nc(cc5[nH]c(cc1n2)cc5C)C(=O)[C@@]4(C)C1O[C@H](C)[C@H](O)C[C@H]1OC(C)=O)[nH]3 (some centres unmarked) [tolyporphin A] | absorption wavelength [5]: 678 nm |

From patent US9303165B2, “Bacteriochlorin imides” (North Carolina State University, priority 2011, dated 2016)
